As usually defined, the MIC is the lowest concentration that inhibits growth of the organism.

Results on 13 compounds are retold here after patent US20260274892A1, “MACROCYCLIC BROAD SPECTRUM ANTIBIOTICS” (RQx Pharmaceuticals, Inc., priority 2017, published 2026).

Test [1] concerns Methicillin Resistant Staphylococcus aureus strain USA 200. As to the kind of experiment: Minimum inhibitory concentration (MIC), CLSI broth micro-dilution, S. aureus. The format is cell-based. The note with it: Staphylococcus aureus, MRSA / USA200; Table 6; MRSA USA 200; cation adjusted Mueller Hinton Broth + 0.002% Tween-80; 35° C., 22 hours. In short, it runs like this: (§1)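 Antibacterial potency is measured as MIC by the CLSI broth dilution method. Bacteria at OD600 0.0005 in Tween-80-supplemented cation-adjusted Mueller Hinton broth face ten twofold compound dilutions for 22 h at 35° C.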

In test [2] the test system is Escherichia coli ATCC 25922. As to the kind of experiment: Minimum inhibitory concentration (MIC), CLSI broth micro-dilution, E. coli. As to conditions: Escherichia coli, ATCC25922, 22 h, Table 6, cation adjusted Mueller Hinton Broth + 0.002% Tween-80, 35° C. It counts as cell-based. In short, it runs like this: as §1
On the technique in general: Dilution methods test growth across graded concentrations, often in twofold steps.

In the case of `Cc1nc(-c2ccc3c(c2)CCC(C)(C)O3)ncc1C(=O)N[C@@H](CCN)C(=O)N(C)[C@@H]1C(=O)N[C@@H](C)C(=O)N[C@H](C(=O)NCC#N)Cc2ccc(OCCN)c(c2)-c2cc1ccc2OCCN` (racemic) [Compound 249, rac-(8S,11S,14S)-3,18-bis(2-aminoethoxy)-N-(cyanomethyl)-11-methyl-14-[methyl-[rac-(2S)-4-amino-2-[[2-(2,2-dimethylchroman-6-yl)-4-methyl-pyrimidine-5-carbonyl]amino]butanoyl]amino]-10,13-dioxo-9,12-diazatricyclo[13.3.1.12,6]icosa-1(18),2(20),3,5,15(19),16-hexaene-8-carboxamide], the results for the MIC in test [1] and in test [2] were 0.043 µM and 0.35 µM, respectively.

Take `Cc1nc(-c2ccc(OC(C)(C)C)cc2)ncc1C(=O)N[C@@H](CCN)C(=O)N(C)[C@@H]1C(=O)N[C@@H](C)C(=O)N[C@H](C(=O)NCC#N)Cc2ccc(OCCN)c(c2)-c2cc1ccc2OCCN` (racemic) [Compound 250, rac-(8S,11S,14S)-3,18-bis(2-aminoethoxy)-N-(cyanomethyl)-11-methyl-14-[methyl-[rac-(2S)-4-amino-2-[[2-(4-tert-butoxyphenyl)-4-methyl-pyrimidine-5-carbonyl]amino]butanoyl]amino]-10,13-dioxo-9,12-diazatricyclo[13.3.1.12,6]icosa-1(18),2(20),3,5,15(19),16-hexaene-8-carboxamide]: the MIC came to 0.066 µM in test [1] and 0.35 µM in test [2].

In the case of `Cc1nc(-c2cccc(OC(C)C)c2)ncc1C(=O)N[C@@H](CCN)C(=O)N(C)[C@@H]1C(=O)N[C@@H](C)C(=O)N[C@H](C(=O)NCC#N)Cc2ccc(OCCN)c(c2)-c2cc1ccc2OCCN` (racemic) [Compound 251, rac-(8S,11S,14S)-3,18-bis(2-aminoethoxy)-N-(cyanomethyl)-11-methyl-14-[methyl-[rac-(2S)-4-amino-2-[[2-(3-isopropoxyphenyl)-4-methyl-pyrimidine-5-carbonyl]amino]butanoyl]amino]-10,13-dioxo-9,12-diazatricyclo[13.3.1.12,6]icosa-1(18),2(20),3,5,15(19),16-hexaene-8-carboxamide], the figures for the MIC in test [1] and in test [2] were 0.067 µM and 1.1 µM, respectively.

As to `Cc1nc(-c2ccc(C(C)(C)C)cc2)nc(C)c1C(=O)N[C@@H](CCN)C(=O)N(C)[C@@H]1C(=O)N[C@@H](C)C(=O)N[C@H](C(=O)NCC#N)Cc2ccc(OCCN)c(c2)-c2cc1ccc2OCCN` (racemic) [Compound 253, rac-(8S,11S,14S)-3,18-bis(2-aminoethoxy)-N-(cyanomethyl)-11-methyl-14-[methyl-[rac-(2S)-4-amino-2-[[2-(4-tert-butylphenyl)-4,6-dimethyl-pyrimidine-5-carbonyl]amino]butanoyl]amino]-10,13-dioxo-9,12-diazatricyclo[13.3.1.12,6]icosa-1(18),2(20),3,5,15(19),16-hexaene-8-carboxamide], the MIC in test [1] came out at 0.012 µM; in test [2], 0.14 µM.

As for `Cc1nc(-c2ccc(C(C)(C)C)cc2)nc(C)c1C(=O)N[C@@H](CCN)C(=O)N(C)[C@@H]1C(=O)N[C@@H](C)C(=O)N[C@H](C(=O)NCC#N)Cc2ccc(O)c(c2)-c2cc1ccc2OCCN` (racemic) [Compound 254, rac-(8S,11S,14S)-18-(2-aminoethoxy)-N-(cyanomethyl)-3-hydroxy-11-methyl-14-[methyl-[rac-(2S)-4-amino-2-[[2-(4-tert-butylphenyl)-4,6-dimethyl-pyrimidine-5-carbonyl]amino]butanoyl]amino]-10,13-dioxo-9,12-diazatricyclo[13.3.1.12,6]icosa-1(18),2(20),3,5,15(19),16-hexaene-8-carboxamide], the MIC is 0.061 µM in test [1] and 0.24 µM in test [2].

`CCCCc1ccc(-c2nc(C)c(C(=O)N[C@@H](CCN)C(=O)N(C)[C@@H]3C(=O)N[C@@H](C)C(=O)N[C@H](C(=O)NCC#N)Cc4ccc(OCCN)c(c4)-c4cc3ccc4OCCN)c(C)n2)cc1` (racemic) [Compound 255, rac-(8S,11S,14S)-3,18-bis(2-aminoethoxy)-N-(cyanomethyl)-11-methyl-14-[methyl-[rac-(2S)-4-amino-2-[[2-(4-butylphenyl)-4,6-dimethyl-pyrimidine-5-carbonyl]amino]butanoyl]amino]-10,13-dioxo-9,12-diazatricyclo[13.3.1.12,6]icosa-1(18),2(20),3,5,15(19),16-hexaene-8-carboxamide]: the results for the MIC in test [1] and in test [2] were 0.0082 µM and 0.066 µM, respectively.

For `Cc1nc(-c2ccc(CC(C)C)cc2)nc(C)c1C(=O)N[C@@H](CCN)C(=O)N(C)[C@@H]1C(=O)N[C@@H](C)C(=O)N[C@H](C(=O)NCC#N)Cc2ccc(OCCN)c(c2)-c2cc1ccc2OCCN` (racemic) [Compound 258, rac-(8S,11S,14S)-3,18-bis(2-aminoethoxy)-N-(cyanomethyl)-11-methyl-14-[methyl-[rac-(2S)-4-amino-2-[[2-(4-isobutylphenyl)-4,6-dimethyl-pyrimidine-5-carbonyl]amino]butanoyl]amino]-10,13-dioxo-9,12-diazatricyclo[13.3.1.12,6]icosa-1(18),2(20),3,5,15(19),16-hexaene-8-carboxamide], the MIC in test [1] amounted to 0.012 µM; in test [2], 0.13 µM.

For the compound `Cc1nc(-c2ccc3c(c2)CCCC3)nc(C)c1C(=O)N[C@@H](CCN)C(=O)N(C)[C@@H]1C(=O)N[C@@H](C)C(=O)N[C@H](C(=O)NCC#N)Cc2ccc(OCCN)c(c2)-c2cc1ccc2OCCN` (racemic) [Compound 259, rac-(8S,11S,14S)-3,18-bis(2-aminoethoxy)-N-(cyanomethyl)-11-methyl-14-[methyl-[rac-(2S)-4-amino-2-[(4,6-dimethyl-2-tetralin-6-yl-pyrimidine-5-carbonyl)amino]butanoyl]amino]-10,13-dioxo-9,12-diazatricyclo[13.3.1.12,6]icosa-1(18),2(20),3,5,15(19),16-hexaene-8-carboxamide], the MIC in test [1] stood at 0.025 µM; in test [2], 0.26 µM.

Regarding `CCc1ccc(-c2nc(C)c(C(=O)N[C@@H](CCN)C(=O)N(C)[C@@H]3C(=O)N[C@@H](C)C(=O)N[C@H](C(=O)NCC#N)Cc4ccc(OCCN)c(c4)-c4cc3ccc4OCCN)c(C)n2)cc1` (racemic) [Compound 260, rac-(8S,11S,14S)-3,18-bis(2-aminoethoxy)-N-(cyanomethyl)-11-methyl-14-[methyl-[rac-(2S)-4-amino-2-[[2-(4-ethylphenyl)-4,6-dimethyl-pyrimidine-5-carbonyl]amino]butanoyl]amino]-10,13-dioxo-9,12-diazatricyclo[13.3.1.12,6]icosa-1(18),2(20),3,5,15(19),16-hexaene-8-carboxamide], the MIC came to 0.079 µM in test [1] and 0.45 µM in test [2].

Regarding `CCC(C)(C)c1ccc(-c2nc(C)c(C(=O)N[C@@H](CCN)C(=O)N(C)[C@@H]3C(=O)N[C@@H](C)C(=O)N[C@H](C(=O)NCC#N)Cc4ccc(OCCN)c(c4)-c4cc3ccc4OCCN)c(C)n2)cc1` (racemic) [Compound 261, rac-(8S,11S,14S)-3,18-bis(2-aminoethoxy)-N-(cyanomethyl)-11-methyl-14-[methyl-[rac-(2S)-4-amino-2-[[2-[4-(1,1-dimethylpropyl)phenyl]-4,6-dimethyl-pyrimidine-5-carbonyl]amino]butanoyl]amino]-10,13-dioxo-9,12-diazatricyclo[13.3.1.12,6]icosa-1(18),2(20),3,5,15(19),16-hexaene-8-carboxamide], the figures for the minimum inhibitory concentration (MIC) in test [1] and in test [2] were 0.014 µM and 0.1 µM, respectively.

Regarding `Cc1nc(-c2ccc(CCC(C)C)cc2)nc(C)c1C(=O)N[C@@H](CCN)C(=O)N(C)[C@@H]1C(=O)N[C@@H](C)C(=O)N[C@H](C(=O)NCC#N)Cc2ccc(OCCN)c(c2)-c2cc1ccc2OCCN` (racemic) [Compound 262, rac-(8S,11S,14S)-3,18-bis(2-aminoethoxy)-N-(cyanomethyl)-11-methyl-14-[methyl-[rac-(2S)-4-amino-2-[[2-(4-isopentylphenyl)-4,6-dimethyl-pyrimidine-5-carbonyl]amino]butanoyl]amino]-10,13-dioxo-9,12-diazatricyclo[13.3.1.12,6]icosa-1(18),2(20),3,5,15(19),16-hexaene-8-carboxamide], the MIC in test [1] turned out to be 0.0081 µM; in test [2], 0.097 µM.

On to `Cc1nc(-c2cccc(C(C)(C)C)c2)nc(C)c1C(=O)N[C@@H](CCN)C(=O)N(C)[C@@H]1C(=O)N[C@@H](C)C(=O)N[C@H](C(=O)NCC#N)Cc2ccc(OCCN)c(c2)-c2cc1ccc2OCCN` (racemic) [Compound 263, rac-(8S,11S,14S)-3,18-bis(2-aminoethoxy)-N-(cyanomethyl)-11-methyl-14-[methyl-[rac-(2S)-4-amino-2-[[2-(3-tert-butylphenyl)-4,6-dimethyl-pyrimidine-5-carbonyl]amino]butanoyl]amino]-10,13-dioxo-9,12-diazatricyclo[13.3.1.12,6]icosa-1(18),2(20),3,5,15(19),16-hexaene-8-carboxamide], for which the values for the MIC in test [1] and in test [2] were 0.016 µM and 0.53 µM, respectively.

As to `C=Cc1ccc(-c2nc(C)c(C(=O)N[C@@H](CCN)C(=O)N(C)[C@@H]3C(=O)N[C@@H](C)C(=O)N[C@H](C(=O)NCC#N)Cc4ccc(OCCN)c(c4)-c4cc3ccc4OCCN)c(C)n2)cc1` (racemic) [Compound 265, rac-(8S,11S,14S)-3,18-bis(2-aminoethoxy)-N-(cyanomethyl)-11-methyl-14-[methyl-[rac-(2S)-4-amino-2-[[4,6-dimethyl-2-(4-vinylphenyl)pyrimidine-5-carbonyl]amino]butanoyl]amino]-10,13-dioxo-9,12-diazatricyclo[13.3.1.12,6]icosa-1(18),2(20),3,5,15(19),16-hexaene-8-carboxamide], the MIC in test [1] stood at 0.068 µM; in test [2] it was 0.41 µM.
